In article PMC7400135, “3-(5-Nitrofuran-2-yl)prop-2-en-1-one Derivatives, with Potent Antituberculosis Activity, Inhibit A Novel Therapeutic Target, Arylamine N-acetyltransferase, in Mycobacteria” (Antibiotics, 2020):
≈ marks a conversion by molar mass, not a printed value.

What follows are compounds tested on multidrug-resistant M. tuberculosis Peru isolate (assay: microbe, parasite or virus in culture). Details: Mycobacterium tuberculosis, 336 h, read-out: MIC MDR-TB.
Assay type: cell-based

Compound | MIC
CCN(CC)c1ccc(C(=O)/C=C/c2ccc([N+](=O)[O-])o2)cc1 [Compound 3] | 0.488 µg/mL (≈ 1.55 µM)
O=C(/C=C/c1ccc([N+](=O)[O-])o1)c1ccc(N2CCCCC2)cc1 [Compound 2] | 1.95 µg/mL (≈ 5.98 µM)
O=C(/C=C/c1ccc([N+](=O)[O-])o1)c1ccc(N2CCOCC2)cc1 [Compound 1] | 0.976 µg/mL (≈ 2.97 µM)
CO[C@H]1/C=C/O[C@@]2(C)Oc3c(C)c(O)c4c(O)c(c(/C=N/N5CCN(C)CC5)c(O)c4c3C2=O)NC(=O)/C(C)=C\C=C\[C@H](C)[C@H](O)[C@@H](C)[C@@H](O)[C@@H](C)[C@H](OC(C)=O)[C@@H]1C [Rifampicin] | > 500 µg/mL
NNC(=O)c1ccncc1 [Isoniazid, reference compound] | > 500 µg/mL
O=[N+]([O-])c1cn2c(n1)OC[C@@H](OCc1ccc(OC(F)(F)F)cc1)C2 [Pretomanid] | 0.488 µg/mL (≈ 1.36 µM)
CN(Cc1cnc2nc(N)nc(N)c2n1)c1ccc(C(=O)N[C@@H](CCC(=O)O)C(=O)O)cc1 [Methotrexate, reference compound] | 250 µg/mL (≈ 550 µM)
CC[C@@H](CO)NCCN[C@@H](CC)CO [Ethambutol] | 8 µg/mL (≈ 39.2 µM)
